Assay results: PubChem BioAssay (NCI)
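Cells were grown in 96-well plates and exposed to each compound for 48 hours at five concentrations; endpoints were interpolated linearly between bracketing concentrations, or set to the highest concentration if not reached. GI50: concentration for 50% inhibition of growth. TGI: concentration producing complete growth inhibition.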

How the values were obtained:
Test in all cases: growth of human tumour cells (NCI), 48 h
[1] = test system: OVCAR-5 ovarian
[2] = test system: TK-10 renal
[3] = test system: COLO 205 colon
[4] = test system: NCI-H226 lung
[5] = test system: PC-3 prostate
[6] = test system: T-47D breast
[7] = test system: UO-31 renal
[8] = test system: A498 renal
[9] = test system: SK-MEL-5 melanoma
[10] = test system: CCRF-CEM leukemia
[11] = test system: UACC-62 melanoma
[12] = test system: MCF7 breast
[13] = test system: K-562 leukemia
[14] = test system: RPMI-8226 leukemia
[15] = test system: SF-268 CNS
[16] = test system: RXF 393 renal
[17] = test system: NCI-H460 lung
[18] = test system: UACC-257 melanoma
[19] = test system: SN12C renal
[20] = test system: OVCAR-8 ovarian
[21] = test system: SF-295 CNS
[22] = test system: NCI/ADR-RES ovarian
[23] = test system: OVCAR-3 ovarian
[24] = test system: OVCAR-4 ovarian
[25] = test system: SW-620 colon
[26] = test system: SR leukemia
[27] = test system: KM12 colon
[28] = test system: DU-145 prostate
[29] = test system: SK-MEL-28 melanoma
[30] = test system: HCT-15 colon
[31] = test system: CAKI-1 renal
[32] = test system: HOP-62 NSCLC
[33] = test system: HL-60(TB) leukemia
[34] = test system: ACHN renal
[35] = test system: BT-549 breast
[36] = test system: MDA-MB-231 breast
[37] = test system: M14 melanoma
[38] = test system: SNB-19 CNS
[39] = test system: EKVX NSCLC
[40] = test system: MDA-MB-468 breast
[41] = test system: HS 578T breast
[42] = test system: HCC-2998 colon
[43] = test system: SK-MEL-2 melanoma
[44] = test system: IGROV1 ovarian
[45] = test system: MOLT-4 leukemia
[46] = test system: MDA-MB-435
[47] = test system: SK-OV-3 ovarian
[48] = test system: SF-539 CNS
[49] = test system: HOP-92 NSCLC
[50] = test system: SNB-75 CNS
[51] = test system: MALME-3M melanoma
[52] = test system: LOX IMVI melanoma
[53] = test system: 786-0 renal
[54] = test system: U251 CNS

For `COc1ccc2[nH]c(O)c(N=NC(=O)COc3ccc(NC(=O)Nc4ccc(Cl)c(Cl)c4)cc3)c2c1`, which GI50 [1] is on record?
The GI50 was 1530 nM.

And the TGI [1]?
Its TGI is 6000 nM.

And the GI50 [2]?
Its GI50 is 3790 nM.

And the TGI [2]?
Its TGI is 14600 nM.

And the GI50 [3]?
Its GI50 is 1120 nM.

And the TGI [3]?
The TGI was 4210 nM.

What about the GI50 [4] of the same compound?
Its GI50 is 1070 nM.

What about the TGI [4] of the same compound?
Its TGI is 3450 nM.

And the GI50 [5]?
The GI50 was 1420 nM.

What about the TGI [5] of the same compound?
Its TGI is 4720 nM.

And the GI50 [6]?
Its GI50 is 1460 nM.

What about the TGI [6] of the same compound?
Its TGI is 3260 nM.

What about the GI50 [7] of the same compound?
The GI50 was 31300 nM.

What about the TGI [7] of the same compound?
The TGI was greater than 100000 nM.

What about the GI50 [8] of the same compound?
Its GI50 is 1840 nM.

And the TGI [8]?
The TGI was 5400 nM.

And the GI50 [9]?
Its GI50 is 1990 nM.

And the TGI [9]?
The TGI was 5360 nM.

What about the GI50 [10] of the same compound?
The GI50 was 822 nM.

What about the TGI [10] of the same compound?
The TGI was 19100 nM.

What about the GI50 [11] of the same compound?
The GI50 was 2860 nM.

And the TGI [11]?
The TGI was 12700 nM.

And the GI50 [12]?
Its GI50 is 488 nM.

And the TGI [12]?
Its TGI is 6050 nM.

What about the GI50 [13] of the same compound?
Its GI50 is 575 nM.

What about the TGI [13] of the same compound?
Its TGI is 19700 nM.

And the GI50 [14]?
The GI50 was 2710 nM.

What about the TGI [14] of the same compound?
Its TGI is greater than 100000 nM.

And the GI50 [15]?
Its GI50 is 1640 nM.

And the TGI [15]?
The TGI was 10200 nM.

What about the GI50 [16] of the same compound?
Its GI50 is 1050 nM.

What about the TGI [16] of the same compound?
The TGI was 2900 nM.

What about the GI50 [17] of the same compound?
Its GI50 is 437 nM.

And the TGI [17]?
The TGI was 1490 nM.

And the GI50 [18]?
Its GI50 is 3360 nM.

What about the TGI [18] of the same compound?
The TGI was 15900 nM.

What about the GI50 [19] of the same compound?
Its GI50 is 1100 nM.

What about the TGI [19] of the same compound?
The TGI was 3450 nM.

What about the GI50 [20] of the same compound?
Its GI50 is 2330 nM.

What about the TGI [20] of the same compound?
Its TGI is 15700 nM.

And the GI50 [21]?
Its GI50 is 1910 nM.

And the TGI [21]?
Its TGI is 5220 nM.

And the GI50 [22]?
The GI50 was 25400 nM.

What about the TGI [22] of the same compound?
Its TGI is greater than 100000 nM.

What about the GI50 [23] of the same compound?
Its GI50 is 696 nM.

And the TGI [23]?
The TGI was 2280 nM.

And the GI50 [24]?
The GI50 was 691 nM.

What about the TGI [24] of the same compound?
Its TGI is 2740 nM.

What about the GI50 [25] of the same compound?
The GI50 was 441 nM.

And the TGI [25]?
The TGI was 1370 nM.

What about the GI50 [26] of the same compound?
Its GI50 is 1040 nM.

And the TGI [26]?
Its TGI is 18400 nM.

What about the GI50 [27] of the same compound?
The GI50 was 1290 nM.

And the TGI [27]?
Its TGI is 7640 nM.

What about the GI50 [28] of the same compound?
The GI50 was 493 nM.

What about the TGI [28] of the same compound?
Its TGI is 1910 nM.

And the GI50 [29]?
The GI50 was 1630 nM.

What about the TGI [29] of the same compound?
Its TGI is 4050 nM.

What about the GI50 [30] of the same compound?
The GI50 was 31600 nM.

What about the TGI [30] of the same compound?
The TGI was greater than 100000 nM.

What about the GI50 [31] of the same compound?
Its GI50 is 2390 nM.

And the TGI [31]?
Its TGI is 11000 nM.

And the GI50 [32]?
Its GI50 is 2880 nM.

And the TGI [32]?
The TGI was 14100 nM.

What about the GI50 [33] of the same compound?
The GI50 was 6710 nM.

And the TGI [33]?
The TGI was 25100 nM.

And the GI50 [34]?
The GI50 was 2180 nM.

And the TGI [34]?
Its TGI is 13200 nM.

What about the GI50 [35] of the same compound?
The GI50 was 2010 nM.

What about the TGI [35] of the same compound?
The TGI was 4470 nM.

What about the GI50 [36] of the same compound?
Its GI50 is 1460 nM.

And the TGI [36]?
The TGI was 3550 nM.

And the GI50 [37]?
Its GI50 is 992 nM.

And the TGI [37]?
The TGI was 4570 nM.

And the GI50 [38]?
Its GI50 is 3330 nM.

What about the TGI [38] of the same compound?
Its TGI is 14200 nM.

What about the GI50 [39] of the same compound?
Its GI50 is 3890 nM.

What about the TGI [39] of the same compound?
Its TGI is 25900 nM.

And the GI50 [40]?
The GI50 was 1170 nM.

And the TGI [40]?
Its TGI is 3010 nM.

What about the GI50 [41] of the same compound?
Its GI50 is 1870 nM.

And the TGI [41]?
The TGI was 5520 nM.

And the GI50 [42]?
Its GI50 is 2970 nM.

And the TGI [42]?
The TGI was 15600 nM.

What about the GI50 [43] of the same compound?
Its GI50 is 10400 nM.

And the TGI [43]?
The TGI was 23000 nM.

What about the GI50 [44] of the same compound?
The GI50 was 1910 nM.

What about the TGI [44] of the same compound?
Its TGI is 6350 nM.

And the GI50 [45]?
Its GI50 is 1610 nM.

What about the TGI [45] of the same compound?
Its TGI is 17900 nM.

What about the GI50 [46] of the same compound?
Its GI50 is 605 nM.

And the TGI [46]?
Its TGI is 2360 nM.

What about the GI50 [47] of the same compound?
The GI50 was 5100 nM.

What about the TGI [47] of the same compound?
Its TGI is 17500 nM.

What about the GI50 [48] of the same compound?
Its GI50 is 767 nM.

And the TGI [48]?
The TGI was 2090 nM.

And the GI50 [49]?
The GI50 was 615 nM.

What about the TGI [49] of the same compound?
The TGI was 2630 nM.

And the GI50 [50]?
Its GI50 is 1610 nM.

And the TGI [50]?
The TGI was 3980 nM.

And the GI50 [51]?
The GI50 was 452 nM.

And the TGI [51]?
The TGI was 1680 nM.

And the GI50 [52]?
Its GI50 is 309 nM.

And the TGI [52]?
The TGI was 1030 nM.

What about the GI50 [53] of the same compound?
The GI50 was 1070 nM.

And the TGI [53]?
Its TGI is 2750 nM.

What about the GI50 [54] of the same compound?
Its GI50 is 3370 nM.

What about the TGI [54] of the same compound?
Its TGI is 14900 nM.
